Test results: publication PMC3004370, “PI3Kα Inhibitors That Inhibit Metastasis” (Oncotarget, 2010)
Counter-ions that a name gives are not always drawn.

How the values were obtained:
p110γ = target: T1, p110γ (Homo sapiens, UniProt P48736); experiment: Biochemical PI3K inhibition assay, p110γ; conditions: for IC50: 10 μM ATP, two hours, no regulatory subunit
T1 construct: His-tag; made in house; host or cells: Sf9 insect cells (baculovirus)
From the text: (§1) cDNA clones of PIK3CA, PIK3CB and PIK3CG were obtained from Origene (Rockville, MD, USA). PIK3CD was generously provided by Novartis Pharmaceuticals. The cDNA clones were sub-cloned into pFastBac His-Tag (Invitrogen, Carlsbad, CA, USA) and baculovirus clones were generated by the Bac-to-Bac expression system (Invitrogen). p110α, p110β and p110δ were co-expressed in Sf9 insect cells (Invitrogen) with a nSH2-iSH2 fragment of the regulatory subunit p85 comprising AA residues 322 to 600 [4]. p110γ was expressed without a regulatory subunit. Sf9 cells were lysed in a buffer containing 50 mM sodium phosphate, pH 8.0, 400 mM NaCl, 5% glycerol, 1% Triton X-100, 10 mM 2-mercaptoethanol, 1 mM orthovanadate, 10 mM imidazole, and sonicated on ice for 1 minute. Proteins were purified by adding Ni-NTA Superflow beads (Qiagen, Valencia, CA, USA) to the lysate and subsequent rolling for 30 min at 4°C. Beads were washed twice with 50 mM phosphate buffer, pH 8.0, 0.5 M NaCl, 50 mM Imidazole, 2 mM DTT and eluted in the same buffer but with 200 mM imidazole. Purified PI3K's were mixed 1:1 with glycerol and stored at -20°C.
(§2) J-series inhibitors were dissolved, serial diluted in DMSO and deposited into 96 well plates at a final DMSO concentration of 1%. We used a novel assay to determine their potency and selectivity. In brief, micelles of 2.5 μg L-a-Phosphatidylinositol and 2.5 μg 1,2-Diacyl-sn-glycero-3-phospho-L-serine were formed by sonication, mixed with the individual PI3K isoforms and added to the drug dilutions in a reaction buffer containing 10 mM HEPES, 25 mM NaCl, 0.125 μg/μl BSA, and 2 mM BME (final concentrations). Reactions were timed after the addition of 10 μM ATP with 40 μCi/ml γ-32P-ATP (PerkinElmer, Waltham, MA, USA) and 2 mM MgCl2 (all final concentrations). The reactions were terminated after two hours by the addition of 2 N HCl and the lipids extracted with 1:1 MetOH/Chloroform. Radio-labeled phosphatidyl-inositol-3-phosphate in the extracted organic fraction was quantified after the addition of Microscint O (PerkinElmer) using a TopCount 96 well plate scintillation counter (PerkinElmer). IC50 concentrations and inhibition curves were calculated using Prism 5 (GraphPad Software, La Jolla, CA).

p110α = target: T2, p110α (Homo sapiens, UniProt P42336); experiment: Biochemical PI3K inhibition assay, p110α; conditions: for IC50: 10 μM ATP, two hours; for effect of substitution on PI3Kα potency/selectivity (in words): SAR discussion
T2 construct: His-tag; made in house; host or cells: Sf9 insect cells (baculovirus)
T2 sequence (P42336 whole entry): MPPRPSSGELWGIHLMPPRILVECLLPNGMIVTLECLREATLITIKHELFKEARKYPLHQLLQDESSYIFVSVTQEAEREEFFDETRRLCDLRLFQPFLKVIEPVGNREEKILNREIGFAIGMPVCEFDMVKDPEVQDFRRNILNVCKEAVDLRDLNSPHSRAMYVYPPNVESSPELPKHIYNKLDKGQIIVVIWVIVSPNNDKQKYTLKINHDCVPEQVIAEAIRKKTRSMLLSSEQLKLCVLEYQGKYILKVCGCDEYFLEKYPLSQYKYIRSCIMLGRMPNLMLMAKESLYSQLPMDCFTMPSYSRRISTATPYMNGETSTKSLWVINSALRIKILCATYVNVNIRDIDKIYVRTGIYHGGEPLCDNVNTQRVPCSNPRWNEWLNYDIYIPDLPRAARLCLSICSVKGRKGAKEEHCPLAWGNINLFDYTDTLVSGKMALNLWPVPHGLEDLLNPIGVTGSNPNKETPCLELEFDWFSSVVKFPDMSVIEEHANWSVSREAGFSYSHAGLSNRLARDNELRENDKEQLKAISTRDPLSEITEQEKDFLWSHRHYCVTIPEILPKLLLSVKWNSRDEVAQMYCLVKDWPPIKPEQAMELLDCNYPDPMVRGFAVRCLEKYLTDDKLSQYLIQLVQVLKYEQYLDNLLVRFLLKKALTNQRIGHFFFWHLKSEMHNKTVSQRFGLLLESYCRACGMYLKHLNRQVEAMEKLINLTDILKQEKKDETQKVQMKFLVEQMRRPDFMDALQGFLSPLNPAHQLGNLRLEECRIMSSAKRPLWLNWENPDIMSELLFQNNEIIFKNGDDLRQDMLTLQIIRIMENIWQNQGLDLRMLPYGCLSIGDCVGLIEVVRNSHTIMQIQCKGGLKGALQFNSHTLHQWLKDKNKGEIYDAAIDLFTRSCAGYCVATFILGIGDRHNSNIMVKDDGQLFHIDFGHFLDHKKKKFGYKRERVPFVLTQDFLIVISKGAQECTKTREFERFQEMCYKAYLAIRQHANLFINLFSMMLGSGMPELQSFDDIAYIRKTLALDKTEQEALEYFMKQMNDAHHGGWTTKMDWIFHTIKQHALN
T2 sequence (P27986 322-600 partner limits assumed): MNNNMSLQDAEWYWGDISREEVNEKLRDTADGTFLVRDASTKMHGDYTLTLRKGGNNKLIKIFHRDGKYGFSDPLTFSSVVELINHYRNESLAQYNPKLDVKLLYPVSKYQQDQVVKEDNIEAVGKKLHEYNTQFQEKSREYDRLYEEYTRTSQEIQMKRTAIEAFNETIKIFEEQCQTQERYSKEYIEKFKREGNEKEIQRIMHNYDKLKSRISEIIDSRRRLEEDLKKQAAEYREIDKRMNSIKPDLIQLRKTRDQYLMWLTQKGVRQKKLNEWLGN
Method: PIK3CD was generously provided by Novartis Pharmaceuticals. […] Sf9 cells were lysed in a buffer containing 50 mM sodium phosphate, pH 8.0, 400 mM NaCl, 5% glycerol, 1% Triton X-100, 10 mM 2-mercaptoethanol, 1 mM orthovanadate, 10 mM imidazole, and sonicated on ice for 1 minute. Proteins were purified by adding Ni-NTA Superflow beads (Qiagen, Valencia, CA, USA) to the lysate and subsequent rolling for 30 min at 4°C. Beads were washed twice with 50 mM phosphate buffer, pH 8.0, 0.5 M NaCl, 50 mM Imidazole, 2 mM DTT and eluted in the same buffer but with 200 mM imidazole. Purified PI3K's were mixed 1:1 with glycerol and stored at -20°C.
as §2, with “In brief, micelles of 2.5 μg L-a-Phosphatidylinositol and 2.5 μg 1,2-Diacyl-sn-glycero-3-phospho-L-serine were formed by sonication, mixed with the individual PI3K isoforms and added to the drug dilutions in a reaction buffer containing 10 mM HEPES, 25 mM NaCl, 0.125 μg/μl BSA, and 2 mM BME (final concentrations).” left out

p110β = target: T3, p110β (Homo sapiens, UniProt P42338); experiment: Biochemical PI3K inhibition assay, p110β; conditions: for IC50: 10 μM ATP, two hours
T3 construct: His-tag; made in house; host or cells: Sf9 insect cells (baculovirus)
T3 sequence (P42338 whole entry): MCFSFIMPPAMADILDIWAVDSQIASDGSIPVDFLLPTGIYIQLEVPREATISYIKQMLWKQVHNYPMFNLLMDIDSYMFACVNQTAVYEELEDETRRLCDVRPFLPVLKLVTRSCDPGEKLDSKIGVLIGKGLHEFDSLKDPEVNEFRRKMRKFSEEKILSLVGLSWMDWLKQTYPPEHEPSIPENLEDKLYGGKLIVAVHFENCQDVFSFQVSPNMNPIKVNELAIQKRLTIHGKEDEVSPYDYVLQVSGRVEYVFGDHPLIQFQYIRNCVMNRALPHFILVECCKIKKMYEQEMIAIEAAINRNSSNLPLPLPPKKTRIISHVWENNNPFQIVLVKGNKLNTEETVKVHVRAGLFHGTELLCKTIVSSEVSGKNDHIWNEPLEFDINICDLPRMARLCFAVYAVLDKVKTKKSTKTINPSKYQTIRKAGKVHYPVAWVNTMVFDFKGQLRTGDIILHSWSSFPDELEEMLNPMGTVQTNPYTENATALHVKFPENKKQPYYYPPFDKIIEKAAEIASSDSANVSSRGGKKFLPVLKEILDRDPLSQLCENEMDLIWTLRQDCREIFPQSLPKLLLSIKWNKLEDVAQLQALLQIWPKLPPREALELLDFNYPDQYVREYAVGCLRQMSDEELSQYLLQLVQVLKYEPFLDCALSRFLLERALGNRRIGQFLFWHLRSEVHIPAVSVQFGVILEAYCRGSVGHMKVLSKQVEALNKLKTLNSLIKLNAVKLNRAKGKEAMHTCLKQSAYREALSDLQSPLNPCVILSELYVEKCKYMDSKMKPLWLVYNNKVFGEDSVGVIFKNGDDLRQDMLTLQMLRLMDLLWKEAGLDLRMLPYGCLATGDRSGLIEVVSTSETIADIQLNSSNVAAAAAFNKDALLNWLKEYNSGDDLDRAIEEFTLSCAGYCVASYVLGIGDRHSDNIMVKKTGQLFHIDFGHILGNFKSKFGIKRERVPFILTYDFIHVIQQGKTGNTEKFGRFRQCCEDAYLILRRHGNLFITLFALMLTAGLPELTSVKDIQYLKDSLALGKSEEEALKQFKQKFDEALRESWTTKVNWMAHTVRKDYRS
T3 sequence (P27986 322-600 partner limits assumed): as the sequence (P27986 322-600 partner limits assumed) above
From the text: as §1, §2

p110δ = target: T4, p110δ (Homo sapiens, UniProt O00329); experiment: Biochemical PI3K inhibition assay, p110δ; conditions: for IC50: 10 μM ATP, two hours
T4 construct: His-tag; made in house; host or cells: Sf9 insect cells (baculovirus)
T4 sequence (O00329 whole entry): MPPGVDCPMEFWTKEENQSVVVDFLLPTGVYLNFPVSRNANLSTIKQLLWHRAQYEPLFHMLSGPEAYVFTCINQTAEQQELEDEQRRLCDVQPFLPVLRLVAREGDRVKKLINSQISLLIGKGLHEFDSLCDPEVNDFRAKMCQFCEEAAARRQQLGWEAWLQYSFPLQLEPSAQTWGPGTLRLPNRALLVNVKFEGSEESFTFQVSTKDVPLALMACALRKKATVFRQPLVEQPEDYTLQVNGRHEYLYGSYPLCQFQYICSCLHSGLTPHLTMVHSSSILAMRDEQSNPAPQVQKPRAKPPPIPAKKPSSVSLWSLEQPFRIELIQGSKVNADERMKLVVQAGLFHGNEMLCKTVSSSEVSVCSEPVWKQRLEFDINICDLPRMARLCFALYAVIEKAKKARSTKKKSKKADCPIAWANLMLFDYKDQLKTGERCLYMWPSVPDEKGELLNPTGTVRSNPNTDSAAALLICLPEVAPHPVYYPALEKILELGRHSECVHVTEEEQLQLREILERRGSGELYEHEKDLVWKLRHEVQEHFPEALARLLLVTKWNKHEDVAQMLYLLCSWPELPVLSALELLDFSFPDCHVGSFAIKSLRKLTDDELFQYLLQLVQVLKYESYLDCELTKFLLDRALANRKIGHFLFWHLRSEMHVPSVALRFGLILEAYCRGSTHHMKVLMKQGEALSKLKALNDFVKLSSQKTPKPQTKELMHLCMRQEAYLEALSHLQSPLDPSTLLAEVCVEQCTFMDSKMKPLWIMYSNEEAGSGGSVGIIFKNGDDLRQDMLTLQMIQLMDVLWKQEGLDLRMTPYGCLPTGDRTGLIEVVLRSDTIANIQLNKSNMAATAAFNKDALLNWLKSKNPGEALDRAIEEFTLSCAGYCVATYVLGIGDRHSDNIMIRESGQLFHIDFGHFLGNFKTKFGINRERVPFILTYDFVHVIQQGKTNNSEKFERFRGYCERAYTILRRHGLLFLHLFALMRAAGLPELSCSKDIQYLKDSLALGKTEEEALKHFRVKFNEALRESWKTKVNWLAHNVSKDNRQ
T4 sequence (P27986 322-600 partner limits assumed): as the sequence (P27986 322-600 partner limits assumed) above
From the text: as §1, §2

T1 sequence (P48736 whole entry): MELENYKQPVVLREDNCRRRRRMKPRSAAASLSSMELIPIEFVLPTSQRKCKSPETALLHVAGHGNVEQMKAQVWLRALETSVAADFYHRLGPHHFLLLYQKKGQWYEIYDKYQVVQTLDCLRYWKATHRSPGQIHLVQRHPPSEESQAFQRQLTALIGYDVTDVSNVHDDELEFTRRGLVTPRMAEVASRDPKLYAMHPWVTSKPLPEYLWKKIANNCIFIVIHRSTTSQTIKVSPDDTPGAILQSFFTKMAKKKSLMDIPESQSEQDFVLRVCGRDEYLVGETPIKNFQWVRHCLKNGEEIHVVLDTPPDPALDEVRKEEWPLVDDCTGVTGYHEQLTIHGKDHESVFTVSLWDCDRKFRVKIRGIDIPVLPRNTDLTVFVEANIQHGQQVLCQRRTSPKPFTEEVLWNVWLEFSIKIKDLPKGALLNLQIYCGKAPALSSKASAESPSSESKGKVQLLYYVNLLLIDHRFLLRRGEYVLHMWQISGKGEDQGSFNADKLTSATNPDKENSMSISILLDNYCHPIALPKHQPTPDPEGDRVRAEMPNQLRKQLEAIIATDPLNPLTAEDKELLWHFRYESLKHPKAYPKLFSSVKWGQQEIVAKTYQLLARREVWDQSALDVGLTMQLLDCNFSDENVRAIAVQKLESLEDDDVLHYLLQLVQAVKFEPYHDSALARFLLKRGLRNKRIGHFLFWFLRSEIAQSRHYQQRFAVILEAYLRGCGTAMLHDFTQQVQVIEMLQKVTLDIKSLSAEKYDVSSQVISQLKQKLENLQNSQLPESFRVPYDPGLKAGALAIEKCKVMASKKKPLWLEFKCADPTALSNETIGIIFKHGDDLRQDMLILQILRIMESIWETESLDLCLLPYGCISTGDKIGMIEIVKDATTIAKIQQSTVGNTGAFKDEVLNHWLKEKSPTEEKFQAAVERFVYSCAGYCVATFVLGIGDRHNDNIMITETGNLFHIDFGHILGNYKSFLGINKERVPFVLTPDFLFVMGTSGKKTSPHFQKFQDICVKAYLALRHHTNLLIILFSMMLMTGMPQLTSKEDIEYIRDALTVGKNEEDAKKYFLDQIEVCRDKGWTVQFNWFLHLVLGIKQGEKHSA

SMILES	IC50 (p110γ) [nM]	IC50 (p110α) [nM]	drop/decrease in inhibitory activity for PI3Kα (p110α; compared to J32)	IC50 (p110β) [nM]	IC50 (p110δ) [nM]	effect of substitution on PI3Kα potency/selectivity (in words) (p110α)	increase of inhibitory activity for PI3Kα (p110α; compared to J32) [fold]	selectivity against PI3Kβ (p110β; relative to PI3Kα)	selectivity against PI3Kγ (p110γ; relative to PI3Kα) [fold]	selectivity against PI3Kδ (p110δ; relative to PI3Kα) [fold]
Cc1ccc([N+](=O)[O-])cc1S(=O)(=O)N(C)/N=C/c1cnc2ccc(Br)cn12 [J27, N'-[(1E)-(6-Bromoimidazo [1,2-a]pyridin-3-yl)methylene]-N,2-dimethyl-5-nitrobenzenesulfonohydrazide hydrochloride, reference compound]	75									
Cc1ccc([N+](=O)[O-])cc1S(=O)(=O)N(Cc1ccccc1)/N=C/c1cnc2ccc(Br)cn12 [J30]	3160	730	6 to 49 fold	6310	781					
CCN(/N=C/c1cnc2ccc(Br)cn12)S(=O)(=O)c1cccc([N+](=O)[O-])c1 [J37]	801	55	greater than 3.6 fold	3060	476					
CCN(/N=C/c1cnc2ccc(Br)cn12)S(=O)(=O)c1ccccc1C [J40]	180000	20000	> 1333 fold	61000	53000					
CCN(/N=C/c1cnc2ccc(Br)cn12)S(=O)(=O)c1cc(S(C)(=O)=O)ccc1C [J41]	253000	23200		235000	3550	impaired potency				
CCOC(=O)CN(/N=C/c1cnc2ccc(Br)cn12)S(=O)(=O)c1cc([N+](=O)[O-])ccc1C [J43]	930	154		1900	363	did not increase potency				
CCN(/N=C/c1cnc2ccc(Br)cn12)S(=O)(=O)c1cc(N)ccc1C [J44]	30000	4400		21000	28000	impaired potency				
CCN(/N=C/c1cnc2ccc(Br)cn12)C(=O)c1cc([N+](=O)[O-])ccc1C [J45]	132	20		75	16	decreased selectivity for the latter				
Cc1ccc([N+](=O)[O-])cc1S(=O)(=O)N(CC(C)C)/N=C/c1cnc2ccc(Br)cn12 [J46]	1750	309	6 to 49 fold	2970	485					
Cc1ccc([N+](=O)[O-])cc1S(=O)(=O)N(CCC#N)/N=C/c1cnc2ccc(Br)cn12 [J47]	192	25		149	169	did not increase potency				
Cc1ccc([N+](=O)[O-])cc1S(=O)(=O)N(/N=C/c1cnc2ccc(Br)cn12)C(C)C [J55]	3340	93	6 to 49 fold	2420	760					
CCN(/N=C/c1cnc2ccc(Br)cn12)S(=O)(=O)c1cc(C(=O)O)ccc1C [J100]	5120	121		2000	173	impaired potency				
CCN(/N=C/c1cnc2ccc(Br)cn12)S(=O)(=O)c1cc([N+](=O)[O-])ccc1Cl [J101]	812	22		936	266	maintain potency and isoform selectivity				
CCN(/N=C/c1cnc2ccc(Br)cn12)S(=O)(=O)c1cc([N+](=O)[O-])c(F)cc1C [J120]	1800	24		1900	470	did not impact the inhibitory activity for PI3Kα substantially				
CCN(/N=C/c1cnc2ccc(Br)cn12)S(=O)(=O)c1cc(C(N)=O)ccc1Cl [J125]	1000	76		600	38	impaired potency				
CCN(/N=C/c1cnc2ccc(Br)cn12)S(=O)(=O)c1cc([N+](=O)[O-])c(O)cc1C [J129]	150	20		510	66	did not impact the inhibitory activity for PI3Kα substantially				
CCN(/N=C/c1cnc2ccc(Br)cn12)S(=O)(=O)c1cc([N+](=O)[O-])c(NCCOC)cc1C [J157]	1000	24		3000	430	did not impact the inhibitory activity for PI3Kα substantially				
CCN(/N=C/c1cnc2ccc(Br)cn12)S(=O)(=O)c1cc([N+](=O)[O-])c(NCCOCCO)cc1C [J158]	200	17		3500	440	did not impact the inhibitory activity for PI3Kα substantially				
CCN(/N=C/c1cnc2ccc(Br)cn12)S(=O)(=O)c1cc([N+](=O)[O-])c(NCC(=O)O)cc1C [J159]	32	4		1880	348		3.8			
CCN(/N=C/c1cnc2ccc(Br)cn12)S(=O)(=O)c1cc([N+](=O)[O-])c(NC(C)C(=O)O)cc1C (stereo not drawn) [J160]	140	11		8200	230					
CCN(/N=C/c1cnc2ccc(Br)cn12)S(=O)(=O)c1cc([N+](=O)[O-])c(NCC(=O)OC)cc1C [J161]	940	33			16000	did not impact the inhibitory activity for PI3Kα substantially				
CCN(/N=C/c1cnc2ccc(Br)cn12)S(=O)(=O)c1cc([N+](=O)[O-])c(NCCO)cc1C [J162]	210	25		2400	400	did not impact the inhibitory activity for PI3Kα substantially				
CCN(/N=C/c1cnc2ccc(Br)cn12)S(=O)(=O)c1cc([N+](=O)[O-])c(NCC(N)=O)cc1C [J163]	74	14		2100	130	did not impact the inhibitory activity for PI3Kα substantially				
CCN(/N=C/c1cnc2ccc(Br)cn12)S(=O)(=O)c1cc([N+](=O)[O-])c(NCC(=O)NC(Cc2ccccc2)C(=O)O)cc1C (stereo not drawn) [J171]	1150	19		12800	1960	retained nanomolar potencies		~ 670 fold	60	100
